Assay [1] concerns M2. As to conditions: cited from earlier work.
Assay [2] has as its system WT AM2. The assay is classed as cell-based, influenza A virus. As to conditions: pH 5.5.

SMILES strings stand for the structures. Entries after “also recorded” stand apart in the source; their conditions may differ.

The term Hill coefficient denotes a measure of the steepness of the concentration-response curve. Regarding `NC12CC3CC(CC(C3)C1)C2` [amantadine], in assay [1], the Hill coefficient was 1.0. The “reversibility of inhibition after removal of the drug” value in assay [2] is “did not reverse; also recorded: not reversible”.

These data come from publication PMC2594009 (Structure (London, England : 1993), 2008).
